Experimental data from publication PMC6896172, “Successful Targeting of the Warburg Effect in Prostate Cancer by Glucose-Conjugated 1,4-Naphthoquinones” (Cancers, 2019).

What was measured:
[1] = system: 22Rv1 cells; assay: Cell fractionation followed by Western blotting; format: cell-based, human; details: 48 h
Procedure: Preparation of protein extracts for western blotting was performed as described previously. In brief, for western blotting, 1 × 10^6 cells/well were seeded in Petri dishes (ø 6 cm TC Dish (Sarstedt, Numbrecht, Germany) in 5 mL/dish), incubated overnight and treated with drugs in 5 mL/dish for an indicated time. Cells were harvested using a cell scraper, pelleted, and resuspended in the lysis buffer containing protease and phosphatase inhibitors. Further sample preparation and western blotting were performed as previously described with slight modifications. Relative optical density of the detected bands was quantified with Quantity One 4.6 software (Bio-Rad, Hercules, CA, USA). The primary and secondary antibodies used are listed in the Supplementary Information.
22Rv1 cells were seeded in T75 culture bottles (4 × 10^6 cells/bottle in 20 mL/bottle), treated for 48 h and harvested by scratching. The further separation of cytosolic, mitochondrial and nuclear fractions was performed using the Cell Fractionation Kit ab109719 (abcam, Cambridge, MA) as previously described. Mitochondrial and cytosolic fractions were concentrated using Amicon® Ultra-2 Centrifugal Filter device (Cat. No. UFC203024, Merck, Darmstadt, Germany). Nuclear fractions were additionally homogenized using QIAshedder kit (QIAGEN, Hilden, Germany).

[2] = system: 22Rv1 cells; assay: Trypan blue exclusion viability assay; format: cell-based; details: Homo sapiens, 48 h of treatment
Procedure: The in vitro effect of the drugs on cell viability and proliferation was evaluated using trypan blue exclusion assay as described before with minor modifications. In brief, cells (0.2 × 10^6 cells/well) were seeded in 12-well plates, incubated overnight, the media was replaced with fresh media (1 mL/well) and treated with the drugs for 48 h. Cells were harvested by trypsination and the viability was measured using trypan blue staining and Beckman Coulter Vi-CELL (Beckman Coulter, Krefeld, Germany).

[3] = system: HEK293 cells; assay: MTT cytotoxicity assay in HEK293 cells; format: cell-based; details: Homo sapiens, 48 h of treatment, non-cancer
Procedure: (§1) Dr. Dr. med. Sonja Loges (University Medical Center Hamburg-Eppendorf, Hamburg, Germany). Cells were cultured according to the manufacturers’ instructions and were recently authenticated by a commercial service (Multiplexion, Heidelberg, Germany). Culture conditions are described in the Supplementary Information.
(§2) MTT (3-(4,5-dimethylthiazol-2-yl)-2,5-diphenyltetrazolium bromide) cytotoxicity assay was used for the evaluation of cytotoxicity of the compounds or their combinations. Experiments were performed as previously described. In brief, 6000 cells/well were seeded in 96-well plate, incubated overnight, and treated with the drugs in 100 µL/well of 10% FBS/RPMI media containing 2 g/L of D-(+)-glucose for 48 h, unless otherwise stated. For 2 h treatment the cells were treated with the drugs for 2 h in the culture media, then the media was exchanged to fresh drug-free media (100 µL/well) containing MTT reagent and the further steps were performed as previously described.

[4] = system: HUVEC cells; assay: MTT cytotoxicity assay in HUVEC cells; format: cell-based; details: Homo sapiens, 48 h of treatment, non-cancer
Procedure: as §1, §2

[5] = system: LNCaP cells; assay: MTT cytotoxicity assay in LNCaP cells; format: cell-based; details: Homo sapiens, 48 h of treatment, cancer
Procedure: as §1, §2

[6] = system: MRC-9 cells; assay: MTT cytotoxicity assay in MRC-9 cells; format: cell-based; details: Homo sapiens, MRC9, 48 h of treatment, non-cancer
Procedure: as §1, §2

`CC1(C)OC2OC(C(O)COC3=CC(=O)c4cccc(O)c4C3=O)C(O)C2O1` (stereo not drawn) [Compound 11] was tested, and the “release of mitochondrial proteins AIF and cytochrome C” value [1] was “release of mitochondrial proteins”, the IC50 [2] was 2.04 µM and the IC50 [3] was 4.46 µM. It also gave an IC50 [4] of 4.31 µM, an IC50 [5] of 0.57 µM and an IC50 [6] of 3.74 µM.
